Measurements taken from PMC5320518, “Novel Liver-targeted conjugates of Glycogen Phosphorylase Inhibitor PSN-357 for the Treatment of Diabetes: Design, Synthesis, Pharmacokinetic and Pharmacological Evaluations” (Scientific Reports, 2017).
Where a name gives a salt, the structure may show the parent alone. Read-outs that look alike come from different tables or passages of the source.

Tests used:
[1] = Stability in mouse liver microsomes (MLM); assay type: in vitro ADME; conditions: C57BL/6, pH 7.4, n = 3
Description: Additionally, the compounds’ stability in microsome were evaluated by measuring the rate of compounds consumpation in MLM and the results are shown in Table 3.
The microsomal pellet was suspended in potassium phosphate buffer (100 mM, pH 7.4), 10 μM test compound or positive control (diclofenac) was added. Liver microsomes from C57BL/6 mice (BD Gentest) were pooled. The mixture of microsome solution and compound was incubated at 37 °C for about 10 min in the presence of a NADPH-regenerating system, consisting of 0.02 M DL-isocitric acid (trisodium salt), 0.1 mg/mL isocitrate dehydrogenase and 1 mM NADPH. The addition of ice-cold CH3CN (including 100 ng/mL tolbutamide as internal standard) terminated the reaction. The mixture was vortexed for approx (30 s), centrifuged (20 min, 4000 rpm) and the supernatant was collected and analysed by LC-MS/MS method.

[2] = target: T1, rabbit muscle GPa (RMGPa) (Oryctolagus cuniculus, UniProt P00489); assay: RMGPa inhibition assay (phosphate release from glucose-1-phosphate); assay type: biochemical; conditions: for IC50: mean ± S.D. of three determinations, NI means no inhibition
T1 sequence (P00489 2-843 limits assumed): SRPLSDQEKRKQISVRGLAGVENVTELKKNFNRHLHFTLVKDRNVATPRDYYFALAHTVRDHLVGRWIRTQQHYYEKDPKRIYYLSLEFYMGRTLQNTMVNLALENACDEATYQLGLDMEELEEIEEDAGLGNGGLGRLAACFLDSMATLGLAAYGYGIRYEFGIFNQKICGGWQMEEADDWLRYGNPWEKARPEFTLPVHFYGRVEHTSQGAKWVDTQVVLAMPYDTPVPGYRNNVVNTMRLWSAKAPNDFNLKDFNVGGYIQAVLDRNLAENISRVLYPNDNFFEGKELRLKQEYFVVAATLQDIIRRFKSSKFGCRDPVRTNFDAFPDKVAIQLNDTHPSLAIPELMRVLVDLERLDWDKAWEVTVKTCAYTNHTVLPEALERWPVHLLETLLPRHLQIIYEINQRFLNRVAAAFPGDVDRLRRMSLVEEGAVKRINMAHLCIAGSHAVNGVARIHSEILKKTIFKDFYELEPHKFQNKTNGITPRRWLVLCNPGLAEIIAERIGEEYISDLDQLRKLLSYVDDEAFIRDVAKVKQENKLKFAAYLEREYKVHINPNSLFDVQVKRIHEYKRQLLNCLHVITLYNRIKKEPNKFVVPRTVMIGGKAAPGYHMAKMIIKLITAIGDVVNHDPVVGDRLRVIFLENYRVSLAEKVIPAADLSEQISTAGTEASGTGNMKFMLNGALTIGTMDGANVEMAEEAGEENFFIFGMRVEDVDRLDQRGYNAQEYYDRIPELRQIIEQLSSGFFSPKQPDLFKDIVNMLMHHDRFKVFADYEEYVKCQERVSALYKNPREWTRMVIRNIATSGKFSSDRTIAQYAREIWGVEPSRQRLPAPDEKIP
Description: All the compounds were evaluated for their inhibitory activity against rabbit muscle GPa (RMGPa). The activity of RMGPa was measured through detecting the release of phosphate from glucose-1-phosphate in the direction of glycogen synthesis. CP-91149, a well-known allosteric GP inhibitor, which shares the same binding site with PSN-357, was used as the positive control and the results are summarized in Table 1[21]. […] This remarkable loss of activity was probably due to the direct steric interference by such bulky substituent of cholic acid group. […] The results is consistent with the SARs of PSN-357 that the hydroxyl of piperidine is not an essential group for the GP inhibitory activity that could be modified slightly.
The inhibitory activity of the test compounds against rabbit muscle glycogen phosphorylase a (GPa) was monitored using microplate reader (BIO-RAD) based on the published method. In brief, GPa activity was measured in the direction of glycogen synthesis by the release of phosphate from glucose-1-phosphate. Each test compound was dissolved in DMSO and diluted at different concentrations for IC50 determination. The enzyme was added into 100 μL of buffer containing 50 mM Hepes (pH = 7.2), 100 mM KCl, 2.5 mM MgCl2, 0.5 mM glucose-1-phosphate, 1 mg/mL glycogen and the test compound in 96-well microplates (Costar). After the addition of 150 μL of 1 M HCl containing 10 mg/mL ammonium molybdate and 0.38 mg/mL malachite green, reactions were run at 22 °C for 25 min, and then the phosphate absorbance was measured at 655 nm. The IC50 values were estimated by fitting the inhibition data to a dose-dependent curve using a logistic derivative equation.

[3] = Stability in simulated intestinal fluid (SIF); assay type: in vitro ADME; conditions: SIF pH 6.79 with pancreatin, 2 μM, 37 °C
Description: (§1) All the conjugates were tested for their chemical and metabolic stability in multiple assays, including simulated gastric fluid (SGF), simulated interstinal fluid (SIF), mouse plasma, and mouse liver microsome (MLM).
(§2) For the stability in SGF (Fig. 8) and SIF (Fig. 9), the conjugates could be divided into three groups: (1) stable conjugates 2, 6 and 9. […] The two conjugates were degraded within 6 h and 1 h in SGF and SIF, respectively, with alomost no conjugates at the end of the 24 h incubation in both SGF and SIF; (3) complicated conjugates 3, 4, 5 and 8.
(§3) The simulated gastrointestinal fluids were prepared according to USP specifications. For SGF, NaCl (0.12 g) and pepsin (0.18 g, from porcine stomach mucosa) was dissolved in HCl (0.42 mL) and sufficient H2O was added to make 60 mL. The pH of the test solution was determined as 1.21 by pH meter. For the SIF, KH2PO4 (0.408 g) and pancreatin (0.6 g, from porcine pancreas) was dissolved in H2O (60 mL). The pH of the test solution was determined as 6.79 by pH meter. Each test compound was dissolved in DMSO and diluted to a final concentration of 2 μM in SIF and SGF. The final concentrations of DMSO and CH3CN in the incubation mixture were 0.2% and 0.45%. Aliquots of these solutions were pipetted into glass tubes, and placed in a 37 °C shaking water bath. Test samples at corresponding time point (1, 2, 6, 24 h) were removed at the end of incubation time and immediately mixed with 800 μL of cold acetonitrile containing 500 ng/mL tolbutamide (internal standard). Samples were subjected to centrifuge at 4000 rpm, 4 °C for 20 min. Aliquots 60 μL of supernatant was combined with 120 μL water for LC-MS/MS analysis.

[4] = Stability in simulated gastric fluid (SGF); assay type: in vitro ADME; conditions: SGF pH 1.21 with pepsin, 2 μM, 37 °C, 24 h incubation
Description: as §1, §2, §3

isolated rat hepatocytes = assay: Glycogenolysis inhibition in isolated rat hepatocytes; assay type: cell-based; conditions: mean ± S.D. of three, NI means no inhibition
Text: (§4) To evaluate the effects of all compounds in cells, the glycogenolysis assays were established in both rat and human liver cells based on the published method. […] The inhibitory activities of the derivatives of PSN-357 (e.g. 25–28) were also explored. It is not surprising that the derivatives still retained micromolar inhibitory activities. Introduction of steric bulks to the hydroxyl group (e.g. 33, 40, 42, 48) led to a complete loss of activity. Data analysis indicated no clear SAR for the substitutents in the cell-based assays.
(§5) The inhibition of hepatic glycogenolysis was monitored by the measurement of liver glycogen, which was done quantitatively by the anthrone reagent (Sigma) colorimetric method based on the published method. Isolated rat hepatocytes or HepG2 cells (Sigma) were treated with the test compound or DMSO solvent (final concentration, 0.10%), followed by 60-min incubation with 0.3 nM glucagon (GGN). Assays were terminated by centrifugation, and cells were digested with 30% KOH followed by glycogen determination. The IC50 values were estimated by fitting the inhibition data to a dose-dependent curve using a logistic derivative equation.

HepG2 cells = assay: Glycogenolysis inhibition in HepG2 cells; assay type: cell-based, human; conditions: read-out: IC50 (glycogenolysis inhibition, HepG2 cells)
Text: as §4, §5

[5] = Hepatocyte, 1 h, isolated rat hepatocytes, 60-min incubation with 0.3 nM glucagon, read-out: IC50 (glycogenolysis inhibition, rat hepatocytes)
[6] = Homo sapiens, HepG2, 1 h, HepG2 cells, 60-min incubation with 0.3 nM glucagon, mean ± S.D. of three, NI means no inhibition

Compound | melting point [°C] | IC50 [2] [µM] | IC50 (isolated rat hepatocytes; [5]) [µM] | IC50 (HepG2 cells; [6]) [µM] | other results
CC(C)[C@H](N)C(=O)OC1CCN(C(=O)[C@H](Cc2ccc(F)cc2)NC(=O)c2cc3cc(Cl)ncc3[nH]2)CC1 (as salt: hydrochloride) [Compound 27] | 214 to 216 |  |  |  | 
C[C@H](NC(=O)CC[C@@H](C)[C@H]1CC[C@H]2[C@@H]3[C@H](O)C[C@@H]4C[C@H](O)CC[C@]4(C)[C@H]3C[C@H](O)[C@]12C)C(=O)OC1CCN(C(=O)[C@H](Cc2ccc(F)cc2)NC(=O)c2cc3cc(Cl)ncc3[nH]2)CC1 [Conjugate 3] |  | 40.5 ± 15.7 |  |  | CLint scaled at 10 μM [1]: 200 mL/min/kg; half-life at 10 μM [1]: 27.4 min; microsomal CLint at 10 μM [1]: 50.6 µL/min/mg; time within which degraded in SIF [3]: ≤ 1 h; stability in SGF (in words) [4]: relatively stable; IC50 (isolated rat hepatocytes; Rattus norvegicus, Hepatocyte, 1 h, read-out: IC50 (glycogenolysis inhibition, rat hepatocytes), isolated rat hepatocytes, 60-min incubation with 0.3 nM glucagon): 632 ± 99.4 µM
CC(C)[C@H](N)C(=O)OC1CCN(C(=O)[C@H](Cc2ccc(F)cc2)NC(=O)c2cc3cc(Cl)ncc3[nH]2)CC1 [Compound 27] |  | 0.88 ± 0.17 | 14.7 ± 4.99 | 16.8 ± 3.71 | 
CC(C)(C)OC(=O)N[C@@H](Cc1ccccc1)C(=O)N[C@@H](CCCCNC(=O)OCC1c2ccccc2-c2ccccc21)C(=O)OC1CCN(C(=O)[C@H](Cc2ccc(F)cc2)NC(=O)c2cc3cc(Cl)ncc3[nH]2)CC1 [Compound 40] |  | 3.44 ± 0.22 | 38.4 ± 5.76 | 33.6 ± 12.2 | 
O=C(CCc1ccccc1/N=N/c1ccc(C(=O)O)cc1)OC1CCN(C(=O)[C@H](Cc2ccc(F)cc2)NC(=O)c2cc3cc(Cl)ncc3[nH]2)CC1 [Compound 48] | 127 to 129 | 3.11 ± 0.05 | 35 ± 3.46 | 9.18 ± 7.42 | 
O=C(O)Cc1ccccc1Nc1c(Cl)cccc1Cl [Diclofenac, diclofenac, reference compound] |  |  |  |  | CLint scaled at 10 μM [1]: 208 mL/min/kg; half-life at 10 μM [1]: 26.3 min; microsomal CLint at 10 μM [1]: 52.6 µL/min/mg
C[C@H](N)C(=O)OC1CCN(C(=O)[C@H](Cc2ccc(F)cc2)NC(=O)c2cc3cc(Cl)ncc3[nH]2)CC1 [Compound 26] |  | 0.56 ± 0.043 | 9.79 ± 9.65 | 6.99 ± 2.1 | 
N[C@@H](CO)C(=O)OC1CCN(C(=O)[C@H](Cc2ccc(F)cc2)NC(=O)c2cc3cc(Cl)ncc3[nH]2)CC1 [Compound 28] |  | 0.52 ± 0.01 | 13.6 ± 0.23 | 2.88 ± 0.16 | fold less potent than PSN-357 (RMGPa) ([2]; vs PSN-357): approximately 1.25 fold
CC(CCC(=O)NC(Cc1ccccc1)C(=O)NC(CCCCNC(=O)OCC1c2ccccc2-c2ccccc21)C(=O)OC1CCN(C(=O)C(Cc2ccc(F)cc2)NC(=O)c2cc3cc(Cl)ncc3[nH]2)CC1)C1CCC2C3C(O)CC4CC(O)CCC4(C)C3CC(O)C12C (centres unmarked) [Compound 42] | 149 to 151 | 15.4 ± 0.89 | 5.56 ± 2.41 |  | IC50 (HepG2 cells; Homo sapiens, HepG2, 1 h): 180 ± 51.2 µM
CC(C)(C)OC(=O)c1ccc(/N=N/c2ccccc2CCC(=O)OC2CCN(C(=O)[C@H](Cc3ccc(F)cc3)NC(=O)c3cc4cc(Cl)ncc4[nH]3)CC2)cc1 [Compound 47] | 123 to 125 |  | 97.6 ± 1.1 |  | 
CN(C)C(=O)[C@H](O)[C@H](Cc1ccccc1)NC(=O)c1cc2cc(Cl)ccc2[nH]1 [CP-91149, reference compound] |  | 0.09 ± 0.04 |  |  | IC50 (isolated rat hepatocytes; isolated rat hepatocytes, 60-min incubation with 0.3 nM glucagon, read-out: IC50 (glycogenolysis inhibition, rat hepatocytes)): 3.08 ± 1.16 µM; IC50 (HepG2 cells; HepG2 cells, 60-min incubation with 0.3 nM glucagon, mean ± S.D. of three, NI means no inhibition): 2.53 ± 0.78 µM
CC(C)[C@H](NC(=O)OC(C)(C)C)C(=O)N[C@@H](C)C(=O)OC1CCN(C(=O)[C@H](Cc2ccc(F)cc2)NC(=O)c2cc3cc(Cl)ncc3[nH]2)CC1 [Compound 33] | 151 to 153 | 27 ± 6.39 | 11.1 ± 3.67 |  | 
CC(C)(C)OC(=O)C[C@H](NC(=O)OC(C)(C)C)C(=O)OC1CCN(C(=O)[C@H](Cc2ccc(F)cc2)NC(=O)c2cc3cc(Cl)ncc3[nH]2)CC1 [Compound 25] | 118 to 120 | 0.81 ± 0.077 | 10.2 ± 1.13 | 15.1 ± 4.11 | 
